Target: T1, human RORgT (Homo sapiens, UniProt P51449)
T1 construct: expressed in transfected cells
T1 sequence (P51449 267-516): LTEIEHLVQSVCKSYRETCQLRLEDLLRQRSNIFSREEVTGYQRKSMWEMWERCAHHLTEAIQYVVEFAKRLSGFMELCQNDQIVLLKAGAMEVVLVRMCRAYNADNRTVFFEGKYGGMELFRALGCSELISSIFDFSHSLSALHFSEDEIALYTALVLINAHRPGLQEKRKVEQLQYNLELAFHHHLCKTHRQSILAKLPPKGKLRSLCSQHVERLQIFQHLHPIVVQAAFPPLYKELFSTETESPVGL
Experiment: RORgT Gal4 Luciferase Reporter Gene Assay
Assay type: cell-based
Details: engineered Jurkat cells overexpressing RORgT (LBD or full length) fused with Gal4 Luc reporter; 18 hours at 37° C.; luminescence
Protocol: RORgT Gal4 Luciferase Reporter Gene Assay
25 µL of cryopreserved Jurkat cells over expressing ligand binding domain (LBD) of RORgT (aa267-516, NM_005060) and Gal4 Luc, or full length of human RORgT and Gal4 Luc, were plated in 384-well solid white cell culture plates (PerkinElmer 6007899), with a density of 10,000 cells/well in RPMI 1640 cell culture media (Gibco 11875-085). The media contained 0.1% BSA, 10 mM HEPES (Gibco 15360-080), […] Sodium Pyruvate (Gibco 11360-040), […] Hygromycin B (Invitrogen 10687-010), and […] Blasticidin (Invitrogen R210-01).
100 nL of compound at varying concentrations in 3-fold serial dilution, with final concentrations ranging from 40 µM to 0.67 nM, were added to the cells using Labcyte Echo 550. The compound and the cells were incubated for 18 hours at 37° C. in a cell culture incubator. Cells were then lysed with 15 uL of Steady-Glo Luciferase Assay reagent (Promega EZ550), followed by centrifuging the assay plates at 1500 RPM for 1 minute. Subsequently, the plates were read on the Envision (PerkinElmer). The inhibition of constitutive activity of RORgT achieved by graded concentrations of compound was calculated as a percentage of the luminescence signal window reduction over a control compound.

SMILES | EC50
CS(=O)(=O)CC(=O)N1CC[C@@]2(S(=O)(=O)c3ccc(F)cc3)c3ccc(OCc4cc(Cl)ccc4Cl)cc3CC[C@@H]12 [Example 208, 1-[(3 aR,9bR)-7-[(2,5-dichlorophenyl)methoxy] -9b-(4-fluorobenzenesulfonyl)-1H,2H,3H,3aH,4H,5H,9bH-benzo[e]indol-3-yl]-2-methanesulfonylethan-1-one] | 0.162 µM
O=C(O)[C@H]1CC[C@H](C(=O)N2CC[C@@]3(S(=O)(=O)c4ccc(F)cc4)c4ccc(Oc5c(F)ccnc5F)cc4CC[C@@H]23)CC1 [Example 115, (1r,4r)-4-[(3aR,9bR)-7-[(2,4-difluoropyridin-3-yl)oxy]-9b-(4-fluorobenzenesulfonyl)-1H,2H,3H,3aH,4H,5H,9bH-benzo[e]indole-3-carbonyl]cyclohexane-1-carboxylic acid] | 0.025 µM
CS(=O)(=O)CC(=O)N1CC[C@@]2(S(=O)(=O)c3ccc(F)cc3)c3ccc(OCc4c(Cl)cccc4Cl)cc3CC[C@@H]12 [Example 191, 1-[(3 aR,9bR)-7-[(2,6-dichlorophenyl)methoxy] -9b-(4-fluorobenzenesulfonyl)-1H,2H,3H,3aH,4H,5H,9bH-benzo[e]indol-3-yl]-2-methanesulfonylethan-1-one] | 0.134 µM
O=C(N1CC[C@@]2(S(=O)(=O)c3ccccc3)c3ccc(OCc4c(Cl)cccc4Cl)cc3CC[C@@H]12)C1(O)CCOCC1 [Example 96, 4-[(3aR,9bR)-9b-(benzenesulfonyl)-7-[(2,6-dichlorophenyl)methoxy]-1H,2H,3H,3aH,4H,5H,9bH-benzo[e]indole-3-carbonyl]oxan-4-ol] | 0.013 µM
Cc1ccccc1Cc1ccc2c(c1)CC[C@H]1N(C(=O)[C@H]3CC[C@H](C(=O)O)CC3)CC[C@@]21S(=O)(=O)c1ccc(F)cc1 [Example 43, (1r,4r)-4-[(3aR,9bR)-9b-(4-fluorobenzenesulfonyl)-7-[(2-methylphenyl)methyl]-1H,2H,3H,3aH,4H,5H,9bH-benzo[e]indole-3-carbonyl]cyclohexane-1-carboxylic acid] | 0.0027 µM
NC(=O)N1CCC(C(=O)N2CC[C@@]3(S(=O)(=O)c4ccc(F)cc4)c4ccc(CCc5c(Cl)cccc5Cl)cc4CC[C@@H]23)CC1 [Example 162, 4-[(3aR,9bR)-7-[2-(2,6-dichlorophenyl)ethyl]-9b-(4-fluorobenzenesulfonyl)-1H,2H,3H,3aH,4H5H,9bH-benzo[e]indole-3-carbonyl]piperidine-1-carboxamide] | 0.0081 µM
O=C(O)[C@H]1CC[C@](O)(C(=O)N2CC[C@@]3(S(=O)(=O)c4ccc(F)cc4)c4ccc(OCc5cc(Cl)ccc5Cl)cc4CC[C@@H]23)CC1 [Example 112, (1 s,4 s)-4-[(3aR,9bR)-7-[(2,5-dichlorophenyl)methoxy]-9b-(4-fluorobenzenesulfonyl)-1H,2H,3H,3aH,4H,5H,9bH-benzo[e]indole-3-carbonyl] -4-hydroxycyclohexane-1-carboxylic acid] | 0.0036 µM
CN1CCC(C(=O)N2CC[C@@]3(S(=O)(=O)c4ccccc4)c4ccc(OCc5c(Cl)cccc5Cl)cc4CC[C@@H]23)CC1 [Example 61, 4-[(3aR,9bR)-9b-(benzenesulfonyl)-7-[(2,6-dichlorophenyl)methoxy]-1H,2H,3H,3aH,4H,5H,9bH-benzo[e]indole-3-carbonyl]-I-methylpiperidine] | 0.076 µM
CS(=O)(=O)N1CCC(C(=O)N2CC[C@@]3(S(=O)(=O)c4ccc(F)cc4)c4ccc(OCc5c(F)cccc5Cl)cc4CC[C@@H]23)CC1 [Example 164, 4-[(3aR,9bR)-7-[(2-chloro-6-fluorophenyl)methoxy]-9b-(4-fluorobenzenesulfonyl)-1H,2H,3H,3aH,4H,5H,9bH-benzo[e]indole-3-carbonyl]-1-methanesulfonylpiperidine] | 0.024 µM
CN1CCC(C(=O)N2CC[C@@]3(S(=O)(=O)c4ccc(F)cc4)c4ccc(OCc5cc(F)c(F)cc5Cl)cc4CC[C@@H]23)CC1 [Example 212, 4-[(3aR,9bR)-7-[(2-chloro-4,5-difluorophenyl)methoxy]-9b-(4-fluorobenzenesulfonyl)-1H,2H,3H,3aH,4H,5H,9bH-benzo[e]indole-3-carbonyl]-1-methylpiperidine] | 0.16 µM
Cc1ccccc1Oc1ccc2c(c1)CC[C@H]1N(C(=O)[C@]3(C)CC[C@@H](C(=O)O)CC3)CC[C@@]21S(=O)(=O)c1ccc(F)cc1 [Example 50, (1r,4r)-4-[(3aR,9bR)-9b-(4-fluorobenzenesulfonyl)-7-(2-methylphenoxy)-1H,2H,3H,3aH,4H,5H,9bH-benzo[e]indole-3-carbonyl]-4-methylcyclohexane-1-carboxylic acid] | 0.0068 µM
CN1CCC(C(=O)N2CC[C@@]3(S(=O)(=O)c4ccc(F)cc4)c4ccc(OCc5c(Cl)cccc5Cl)cc4CC[C@@H]23)CC1 [Example 171, 4-[(3aR,9bR)-7-[(2,6-dichlorophenyl)methoxy]-9b-(4-fluorobenzenesulfonyl)-1H,2H,3H,3aH,4H,5H,9bH-benzo[e]indole-3-carbonyl]-1-methylpiperidine] | 0.113 µM
O=C(O)[C@H]1CC[C@H](C(=O)N2CC[C@@]3(S(=O)(=O)c4ccc(F)cc4)c4ccc(OCc5c(Cl)cccc5Cl)cc4CC[C@@H]23)CC1 [Example 121, (1r,4r)-4-[(3aR,9bR)-7-[(2,6-dichlorophenyl)methoxy]-9b-(4-fluorobenzenesulfonyl)-1H,2H,3H,3aH,4H,5H,9bH-benzo[e]indole-3-carbonyl]cyclohexane-1-carboxylic acid] | 0.0097 µM
CS(=O)(=O)N1CCC(C(=O)N2CC[C@@]3(S(=O)(=O)c4ccc(F)cc4)c4ccc(OCc5c(Cl)cccc5Cl)cc4CC[C@@H]23)CC1 [Example 190, 4-[(3aR,9bR)-7-[(2,6-dichlorophenyl)methoxy]-9b-(4-fluorobenzenesulfonyl)-1H,2H,3H,3aH,4H,5H,9bH-benzo[e]indole-3-carbonyl]-1-methanesulfonylpiperidine] | 0.0087 µM

Next, values leading:

EC50 | SMILES
0.0088 µM | O=C(C1CCS(=O)(=O)CC1)N1CC[C@@]2(S(=O)(=O)c3ccc(F)cc3)c3ccc(OCc4cc(F)ccc4Cl)cc3CC[C@@H]12 [Example 181, 4-[(3aR,9bR)-7-[(2-chloro-5-fluorophenyl)methoxy]-9b-(4-fluorobenzenesulfonyl)-1H,2H,3H,3aH,4H,5H,9bH-benzo[e]indole-3-carbonyl]-1λ^6-thiane-1,1-dione]
0.012 µM | O=C(C1CCS(=O)(=O)C1)N1CC[C@@]2(S(=O)(=O)c3ccc(F)cc3)c3ccc(OCc4c(F)cccc4Cl)cc3CC[C@@H]12 (stereo partly drawn) [Example 163, 3-[(3aR,9bR)-7-[(2-chloro-6-fluorophenyl)methoxy]-9b-(4-fluorobenzenesulfonyl)-1H,2H,3H,3aH,4H,5H,9bH-benzo[e]indole-3-carbonyl]-1λ^6-thiolane-1,1-dione]
0.0018 µM | O=C(C1CCS(=O)(=O)CC1)N1CC[C@@]2(S(=O)(=O)c3ccc(F)cc3)c3ccc(Cc4c(F)cccc4Cl)cc3CC[C@@H]12 [Example 32, 4-[(3aR,9bR)-7-[(2-chloro-6-fluorophenyl)methyl]-9b-(4-fluorobenzenesulfonyl)-1H,2H,3H,3aH,4H,5H,9bH-benzo[e]indole-3-carbonyl]-1λ^6-thiane-1,1-dione]
0.012 µM | O=C(C1CCS(=O)(=O)C1)N1CC[C@@]2(S(=O)(=O)c3ccc(F)cc3)c3ccc(OCc4cc(F)ccc4Cl)cc3CC[C@@H]12 (stereo partly drawn) [Example 178, 3-[(3aR,9bR)-7-[(2-chloro-5-fluorophenyl)methoxy]-9b-(4-fluorobenzenesulfonyl)-1H,2H,3H,3aH,4H,5H,9bH-benzo[e]indole-3-carbonyl]-1λ^6-thiolane-1,1-dione]
0.0049 µM | O=C(C1CCS(=O)(=O)C1)N1CC[C@@]2(S(=O)(=O)c3ccc(F)cc3)c3ccc(OCc4cc(F)c(F)cc4Cl)cc3CC[C@@H]12 (stereo partly drawn) [Example 213, 3-[(3aR,9bR)-7-[(2-chloro-4,5-difluorophenyl)methoxy]-9b-(4-fluorobenzenesulfonyl)-1H,2H,3H,3aH,4H,5H,9bH-benzo[e]indole-3-carbonyl]-1λ^6-thiolane-1,1-dione]
0.012 µM | NC(=O)N1CCC(C(=O)N2CC[C@@]3(S(=O)(=O)c4ccc(F)cc4)c4ccc(OCc5cc(F)ccc5Cl)cc4CC[C@@H]23)CC1 [Example 179, 4-[(3aR,9bR)-7-[(2-chloro-5-fluorophenyl)methoxy]-9b-(4-fluorobenzenesulfonyl)-1H,2H,3H,3aH,4H,5H,9bH-benzo[e]indole-3-carbonyl]piperidine-1-carboxamide]
0.022 µM | O=C(C1CCS(=O)(=O)CC1)N1CC[C@@]2(S(=O)(=O)c3ccccc3)c3ccc(OCc4ccc(F)cc4Cl)cc3CC[C@@H]12 [Example 134, 4-[(3aR,9bR)-9b-(benzenesulfonyl)-7-[(2-chloro-4-fluorophenyl)methoxy]-1H,2H,3H,3aH,4H,5H,9bH-benzo[e]indole-3-carbonyl]-1λ^6-thiane-1,1-dione]

Source: patent US20230295087A1, “AGONISTS OF ROR GAMMAt” (BRISTOL-MYERS SQUIBB COMPANY, priority 2019, published 2023)
